Measured values taken from US11723360B2 (priority 2018, dated 2023).
Converted amounts (≈) assume the structure as drawn. Where two headings read alike, the source gives them in different places.

Experiments:
Meloidogyne incognita = assay: Insecticidal bioassay against root-knot nematodes in 96-well plate; set-up: Lethality Rate (%): dose or concentration left out as unconfirmed; details: for LC50: Meloidogyne incognita
Caenorhabditis elegans = assay: Insecticidal bioassay against Caenorhabditis elegans in 96-well plate; assay type: in vivo; details: for LC50: Caenorhabditis elegans
Method: 20 μL of 1 mg/mL methylmalonic acid aqueous solution was added to the 96-well plate, and at the same time, purified water was added; the final concentrations of the methylmalonic acid in the well plate was adjusted to […] in order; 40 nematodes were added to each well; and a bioassay system was 200 μL in total, with the purified water as a control. The process was repeated 3 times for each group. They were cultured in an incubator at 16° C.
20 μL of 1 mg/mL mixed aqueous solution of methylmalonic acid and betaine (mass ratio: 1:1) was added to the 96-well plate, and at the same time, purified water was added; the final concentrations of the compounded solution in the well plate was adjusted to 1000, 100, 25, 16.67, 12.5, 10, 1, 0.5, 0.25 μg/mL in order; and 40 nematodes were added to each well; a bioassay system was 200 μL in total, with the purified water as a control, and 3 times repeated for each group. They were cultured in an incubator at 16° C.

Xanthomonas campestris = assay: Agar plate diffusion method, bacterial plant pathogens; assay type: cell-based; details: 5 μL of 0.1 g/mL on 6 mm filter paper, 30° C.
Ralstonia solanacearum = assay type: cell-based
fungal plant pathogens = assay: Mycelium growth rate method, summary statement for all fungi tested; assay type: cell-based; details: Example 5
Method: (§1) The mycelia of fungal pathogens were picked and inoculated to a PDA medium for activation. With a mycelium growth rate method, 200 μg/mL methylmalonic acid mother liquid was prepared using sterile water; 4.5 mL of sterile water was added to 0.5 mL of the mother liquid and evenly mixed; fungal masses were picked and placed in a PDA culture medium plate center, and then cultured at 28° C. to observe the results, with the sterile water as a negative control. After the plate was fully covered with the control mycelia, the diameters of the control and treatment colonies were counted with a crossing method.
as §1, with “μg/mL mixed aqueous solution of” for “μg/mL”, “acid and betaine (mass ratio: 1:1)” for “acid mother liquid”, “the mixed solution” for “the mother liquid”

Corynespora cassiicola = assay: Mycelium growth rate method, fungal plant pathogens; assay type: cell-based; set-up: key: +: effective; −: ineffective; details: 28° C.
Method: as §1
as §1, with “μg/mL mixed aqueous solution of” for “μg/mL”, “acid and betaine (mass ratio: 1:1)” for “acid mother liquid”, “the mixed solution” for “the mother liquid”

Rhizoctonia solani = assay: as above; assay type: cell-based; set-up: key: +: effective; −: ineffective; details: 28° C.
Method: as §1
as §1, with “μg/mL mixed aqueous solution of” for “μg/mL”, “acid and betaine (mass ratio: 1:1)” for “acid mother liquid”, “the mixed solution” for “the mother liquid”

Botrytis cinerea = assay: as above; assay type: cell-based; set-up: key: +: effective; −: ineffective; details: 28° C.
Method: as §1
as §1, with “μg/mL mixed aqueous solution of” for “μg/mL”, “acid and betaine (mass ratio: 1:1)” for “acid mother liquid”, “the mixed solution” for “the mother liquid”

Pestalotiopsis theae = assay: as above; assay type: cell-based; set-up: key: +: effective; −: ineffective; details: 28° C.
Method: as §1
as §1, with “μg/mL mixed aqueous solution of” for “μg/mL”, “acid and betaine (mass ratio: 1:1)” for “acid mother liquid”, “the mixed solution” for “the mother liquid”

Sclerotinia sclerotiorum = assay: as above; assay type: cell-based; set-up: key: +: effective; −: ineffective; details: 28° C.
Method: as §1
as §1, with “μg/mL mixed aqueous solution of” for “μg/mL”, “acid and betaine (mass ratio: 1:1)” for “acid mother liquid”, “the mixed solution” for “the mother liquid”

Alternaria solani = assay: as above; assay type: cell-based; set-up: key: +: effective; −: ineffective; details: 28° C.
Method: as §1
as §1, with “μg/mL mixed aqueous solution of” for “μg/mL”, “acid and betaine (mass ratio: 1:1)” for “acid mother liquid”, “the mixed solution” for “the mother liquid”

Fusarium oxysporum = assay: as above; assay type: cell-based; set-up: key: +: effective; −: ineffective; details: 28° C.
Method: as §1
as §1, with “μg/mL mixed aqueous solution of” for “μg/mL”, “acid and betaine (mass ratio: 1:1)” for “acid mother liquid”, “the mixed solution” for “the mother liquid”

Phytophthora capsici = assay: as above; assay type: cell-based; set-up: key: +: effective; −: ineffective; details: 28° C.
Method: as §1
as §1, with “μg/mL mixed aqueous solution of” for “μg/mL”, “acid and betaine (mass ratio: 1:1)” for “acid mother liquid”, “the mixed solution” for “the mother liquid”

[1] = water, alcohol, ether; cited from earlier work
Erwinia carotovora = assay: Agar plate diffusion method, bacterial plant pathogens; assay type: cell-based
[2] = read-out: LC50 against the Meloidogyne incognita
[3] = read-out: LC50 value against the Meloidogyne incognita
[4] = 5 μL of 0.1 g/mL on 6 mm filter paper, 30° C.
[5] = 200 μg/mL mother liquid, 0.5 mL + 4.5 mL sterile water, PDA
[6] = Example 9: 200 μg/mL mixed aqueous solution of methylmalonic acid and betaine (1:1), 0.5 mL + 4.5 mL water

C[N+](C)(C)CC(=O)O [betaine]
LC50 (Meloidogyne incognita; [2]): 75.2 µg/mL
LC50 (Meloidogyne incognita; [3]): 75.2 µg/mL
LC50 (Caenorhabditis elegans; text of Examples 3 and 7, read-out: LC50 against the Caenorhabditis elegans): 14.8 µg/mL

CC(C(=O)O)C(=O)O [methylmalonic acid]
Diameter of Inhibition Zone (Xanthomonas campestris): 0 mm
Microbicidal Effect (Xanthomonas campestris): −
Diameter of Inhibition Zone (Ralstonia solanacearum; [4]): 12 mm
Microbicidal Effect (Ralstonia solanacearum; [4]): ++ (with microbicidal activity, and the diameter of an inhibition zone being more than 10 mm)
microbicidal activity against the Pseudomonas solanacearum (Ralstonia solanacearum; 5 μL of 0.1 g/mL, Example 4): showed a microbicidal activity
microbicidal activity against the fungal plant pathogens (fungal plant pathogens): showed no microbicidal activity
Lethality Rate (%) (Meloidogyne incognita; Dose 1): 8.1%
Lethality Rate (%) (Meloidogyne incognita; Dose 10): 12.5%
Lethality Rate (%) (Meloidogyne incognita; Dose 12.5): 29.3%
Lethality Rate (%) (Meloidogyne incognita; Dose 16.67): 76.3%
Lethality Rate (%) (Meloidogyne incognita; Dose 25): 81.1%
Lethality Rate (%) (Meloidogyne incognita; Dose 50): 80%
Lethality Rate (%) (Meloidogyne incognita; Dose 100): 97.5%
Lethality Rate (%) (Meloidogyne incognita; Dose 1000): 97.4%
LC50 (Meloidogyne incognita; [2]): 13.1 µg/mL (≈ 111 µM)
LC50 (Meloidogyne incognita; [3]): 13.1 µg/mL (≈ 111 µM)
LC50 (Meloidogyne incognita; read-out: Medial Lethal Concentration (LC50, ug/mL)): 13.1 µg/mL (≈ 111 µM)
LC50 (Caenorhabditis elegans; 16° C., table value, read-out: Medial Lethal Concentration (LC50, ug/mL)): 1.2 µg/mL (≈ 10.2 µM)
LC50 (Caenorhabditis elegans; read-out: LC50 value against the Caenorhabditis elegans, text of Example 3): 1.2 µg/mL (≈ 10.2 µM)
Lethality Rate (%) (Caenorhabditis elegans; Dose 1 pg/mL): 18.4%
Lethality Rate (%) (Caenorhabditis elegans; Dose 10 pg/mL): 70.0%
Lethality Rate (%) (Caenorhabditis elegans; Dose 16.67 pg/mL): 94.9%
Lethality Rate (%) (Caenorhabditis elegans; Dose 25 pg/mL): 90.5%
Lethality Rate (%) (Caenorhabditis elegans; Dose 100 pg/mL): 97.4%
Lethality Rate (%) (Caenorhabditis elegans; Dose 1000 pg/mL): 97.5%
Microbicidal Effect (Corynespora cassiicola; [5]): −
Microbicidal Effect (Corynespora cassiicola; [6]): −
Microbicidal Effect (Rhizoctonia solani; [5]): −
Microbicidal Effect (Rhizoctonia solani; [6]): −
Microbicidal Effect (Botrytis cinerea; [5]): −
Microbicidal Effect (Botrytis cinerea; [6]): −
Microbicidal Effect (Pestalotiopsis theae; [5]): −
Microbicidal Effect (Pestalotiopsis theae; [6]): −
Microbicidal Effect (Sclerotinia sclerotiorum; [5]): −
Microbicidal Effect (Sclerotinia sclerotiorum; [6]): −
Microbicidal Effect (Alternaria solani; [5]): −
Microbicidal Effect (Alternaria solani; [6]): −
Microbicidal Effect (Fusarium oxysporum; [5]): −
Microbicidal Effect (Fusarium oxysporum; [6]): −
Microbicidal Effect (Phytophthora capsici; [5]): −
Microbicidal Effect (Phytophthora capsici; [6]): −
solubility (physical properties) [1]: soluble in water, alcohol and ether
Diameter of Inhibition Zone (Erwinia carotovora; [4]): 6.9 mm
Microbicidal Effect (Erwinia carotovora; [4]): + (with microbicidal activity, the diameter of an inhibition zone being less than 10 mm)
microbicidal activity against the Erwinia carotovora (Erwinia carotovora; 5 μL of 0.1 g/mL, Example 4): showed a microbicidal activity
